According to publication PMC9491098, “Discovery of novel drug-like antitubercular hits targeting the MEP pathway enzyme DXPS by strategic application of ligand-based virtual screening” (Chemical Science, 2022):
≈ marks a conversion by molar mass, not a printed value. Where “and” joins values, the source holds several entries; their conditions need not be identical. Identical values can stand only once. Like-named read-outs stand apart in the source and are kept apart here.

Experiments:
MtDXPS [1] = target: T1, MtDXPS (Mycobacterium tuberculosis, UniProt P9WNS3); experiment: microscale thermophoresis (MST) dissociation constant; assay type: binding; details: Fig. 4F
Description: ETB + A <===> ETAB : Ka2 (Ka2 is the dissociation constant of pyruvate with […]
ETA + B <===> ETAB : Kb2 (Kb2 is the dissociation constant of ThDP with DXPS) E + I <===> EI* : Ki* (Ki* is the Morrison inhibition constant of inhibitor with apoDXPS) ETAB ---> ET + P : kcat (kcat is the catalytic constant of DXPS) […]
microscale thermophoresis (MST)
MST measurements were performed on a Monolith NT.115 (NanoTemper
Technologies GmbH, Germany) instrument using red-dye-NHS fluorescent labeling.
Each purified MtDXPS sample was labeled with red-dye-NHS second generation dye, according to the supplied protocol. Measurements were performed in 100 m M Tris-HCl (pH 7.6) containing 0.05% Tween-20 and 5% DMSO in premium treated capillaries.
The final concentration of each labeled protein in the assay was 100 n M. The inhibitors were titrated in 1:1 dilutions according to the supplier’s recommendations. All binding reactions were incubated at room temperature for 30 min before loading, and then pre-incubated for 5 min at room temperature after loading into the capillaries. Experiments were performed in duplicates, using 40% LED power, medium MST power, laser on time 20 s, and laser off time 3 s. Kds of the inhibitors were extracted from raw data at a 10–20 s on time according to the manufacturer’s instructions. A denaturation test was performed to exclude any nonspecific spectral interactions between the inhibitors […]
The solutions were vortexed, and then the rest of the assay components was added in the following order: HEPES, pH = 8 (100 m M), bovine serum albumin (1 mg/mL), cysteine (2 mM), ThDP (0.325 μM), coenzyme-A (150 μM), TCEP (300 μM), pyruvate (150 μM) and MgCl2 (1 mM). […] Porcine PDH (final concentration of 0.01 U/ mL) was then added to initiate the reactions, which were monitored spectrophotometrically by measuring the […]

MtDXPS [2] = target: T1, MtDXPS
HepG2 = experiment: toxicity against human cell lines; assay type: cell-based; details: HepG2, 48 h, read-out: Toxicity Human cell lines EC50 (μM) HepG2
A549 = experiment: toxicity against human cell lines; assay type: cell-based; details: A549, 48 h, read-out: Toxicity Human cell lines EC50 (μM) A549
[3] = system: E. coli strain BL21 (DE3) pET22b-H6[…]; experiment: microbe, parasite or virus in culture; assay type: cell-based; details: Escherichia coli, Fig. 6B
zebrafish larvae = experiment: toxicity against zebrafish larvae; assay type: in vivo; details: Table S4, 10 larvae per condition
M. tuberculosis strains = experiment: MIC against multiple M. tuberculosis strains, absolute concentration method on 7H10 agar; assay type: cell-based; details: Mycobacterium tuberculosis
[4] = metabolic stability in human liver S9 fraction; details: pooled liver S9 fraction
Description: For vitro assessment of metabolic stability, 10 µL of each compound (10 µM) was
incubated with human pooled liver S9-fraction (1 mg/mL, Corning, Corning, NY, USA)
in a master mix containing 2 mM NADP, 10 mM glucose-6-phosphate, 10 U/mL
glucose-6-phosphate dehydrogenase, 1 mM UDPGA, 0.1 mM PAPS, 10 mM MgCl2.
acetonitrile containing diphenhydramine as internal standard at 4 °C. The supernatant
was used for LC-MS analysis and half life time t1/2 was calculated from decreasing
concentrations/peak areas.
LC conditions: samples were analyzed with an Ultimate 3000 HPLC (Thermo Fisher,
Waltham, MA, USA) coupled to a TSQ Quantum Access Max triple quadrupole mass
spectrometer (Thermo Fisher, Waltham, MA, USA) in SRM mode. Analysis was
performed on a Nucleodur C18 Pyramid column (3 µm, 2x150 mm, Macherey-Nagel,
Düren, Germany) with a flow of 0.6 mL/min and a water (0.1% formic acid) and
acetonitrile (0.1% formic acid) eluent system. Gradient as follows: 10% acetonitrile for
1 min, 10–90% acetonitrile over 0.7 min, 90% acetonitrile for 1.8 min, equilibration at
10% acetonitrile for 1 min.
MS conditions: calibration of mass spectrometer parameters was performed
individually for each compound:

[5] = system: E. coli strain BL21 (DE3) pQEYAEM; experiment: microbe, parasite or virus in culture; assay type: cell-based; details: Escherichia coli, Fig. 6A
E. coli TolC = experiment: microbe, parasite or virus in culture; assay type: cell-based; details: Escherichia coli
HEK293 = experiment: toxicity against human cell lines; assay type: cell-based; details: HEK293, 48 h, read-out: Toxicity Human cell lines EC50 (μM) HEK293
MtDXPS [6] = target: T1, MtDXPS; experiment: biochemical; details: for mode of inhibition on MtDXPS: MOI study, comparison of IC50 under varied [ThDP], [PYR], [D-GAP]; for equilibration time (slow-binding): time-dependent progress curves, Fig. 4A, inhibitor 100 µM
MtDXPS [7] = target: T1, MtDXPS; experiment: biochemical
DrDXPS (WT) = DrDXPS (WT) (Deinococcus radiodurans, UniProt Q9RUB5); experiment: biochemical; assay type: biochemical; details: IC50, Fig. 5F/G, DrDXPS (WT)
[8] = [IPTG] 0.5 mM (MtDXPS overexpression)
[9] = read-out: Antitubercular activity Strain & MIC (μM) A
[10] = read-out: Antitubercular activity Strain & MIC (μM) B
[11] = read-out: Antitubercular activity Strain & MIC (μM) C
[12] = read-out: Antitubercular activity Strain & MIC (μM) D
[13] = read-out: Antitubercular activity Strain & MIC (μM) E
[14] = read-out: Antitubercular activity Strain & MIC (μM) F
[15] = susceptible, DR, MDR and XDR strains, read-out: antitubercular activity (MIC) against multiple M. tuberculosis strains
[16] = [IPTG] 0.5 mM (E. coli IspC overexpression)
[17] = Morrison constant Ki* against MtDXPS, two-step tight-binding Morrison model, Dynafit, text and Fig. 4C–E
[18] = [ThDP] 0.1 μM (1.6x Km), [PYR] 0.5 mM (2.4x), [D-GAP] […] (1.5x)
[19] = [ThDP] 0.1 μM (1.6x Km), [PYR] […] (1.2x), [D-GAP] 0.5 mM (2.9x)
[20] = [ThDP] 0.1 μM (1.6x Km), [PYR] […] (1.2x), [D-GAP] […] (1.5x)
[21] = [ThDP] 0.2 μM (3.2x Km), [PYR] […] (1.2x), [D-GAP] […] (1.5x)

T1 sequence (P9WNS3 whole entry, looked up): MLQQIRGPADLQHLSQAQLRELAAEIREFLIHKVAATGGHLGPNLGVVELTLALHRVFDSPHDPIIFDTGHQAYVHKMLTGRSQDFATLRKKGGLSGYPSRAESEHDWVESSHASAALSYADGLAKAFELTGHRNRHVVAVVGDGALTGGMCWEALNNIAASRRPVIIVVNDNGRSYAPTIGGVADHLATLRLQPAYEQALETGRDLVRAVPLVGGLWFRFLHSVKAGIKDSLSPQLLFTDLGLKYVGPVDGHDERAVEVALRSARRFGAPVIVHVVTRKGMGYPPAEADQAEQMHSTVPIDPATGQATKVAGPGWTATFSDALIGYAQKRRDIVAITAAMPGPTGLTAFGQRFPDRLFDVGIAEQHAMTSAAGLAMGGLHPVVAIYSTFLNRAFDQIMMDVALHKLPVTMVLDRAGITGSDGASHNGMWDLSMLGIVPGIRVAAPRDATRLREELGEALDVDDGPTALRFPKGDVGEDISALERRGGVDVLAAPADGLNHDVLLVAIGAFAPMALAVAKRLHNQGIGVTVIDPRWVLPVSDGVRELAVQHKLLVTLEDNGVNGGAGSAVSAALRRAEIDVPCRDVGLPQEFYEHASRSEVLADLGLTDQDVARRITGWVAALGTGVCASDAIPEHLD
Sequence of DrDXPS (WT) (Q9RUB5 whole entry, looked up): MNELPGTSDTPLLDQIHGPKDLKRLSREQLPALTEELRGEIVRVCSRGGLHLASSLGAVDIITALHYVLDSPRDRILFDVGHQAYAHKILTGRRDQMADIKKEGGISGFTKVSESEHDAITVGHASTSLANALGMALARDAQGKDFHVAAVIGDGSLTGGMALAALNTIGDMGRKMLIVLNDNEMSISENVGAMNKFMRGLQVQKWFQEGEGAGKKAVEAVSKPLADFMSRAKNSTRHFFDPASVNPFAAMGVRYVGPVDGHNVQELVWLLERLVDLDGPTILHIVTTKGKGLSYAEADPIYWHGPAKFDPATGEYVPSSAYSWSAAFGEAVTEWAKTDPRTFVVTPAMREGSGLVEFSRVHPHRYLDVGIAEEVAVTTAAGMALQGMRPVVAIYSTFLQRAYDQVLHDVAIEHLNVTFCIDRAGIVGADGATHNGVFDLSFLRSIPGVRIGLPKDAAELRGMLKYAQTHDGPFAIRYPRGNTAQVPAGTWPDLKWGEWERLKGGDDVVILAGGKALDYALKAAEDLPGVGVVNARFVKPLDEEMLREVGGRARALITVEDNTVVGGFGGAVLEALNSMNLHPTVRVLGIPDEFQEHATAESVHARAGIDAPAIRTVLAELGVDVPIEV

## ON=C(Cc1ccc(Cl)cc1)c1ccc(O)cc1O [Compound 9]
MtDXPS [1]
  Kd: 0.221 µM and 0.2 µM
MtDXPS [2]
  hit validation (false-positive check): true inhibitors
HepG2
  EC50: > 50 µM
A549
  EC50: > 50 µM
[3]; [IPTG] 0 mM
  MIC: 15 ± 1 µM (≈ 4.17 µg/mL)
[3]; [8]
  MIC: > 200 µM
Zebrafish larvae; 2 µM, 24 h (2 dpf)
  number of living zebrafish larvae: 10
Zebrafish larvae; 2 µM, 48 h (3 dpf)
  number of living zebrafish larvae: 10
Zebrafish larvae; 2 µM, 72 h (4 dpf)
  number of living zebrafish larvae: 10
Zebrafish larvae; 2 µM, 96 h (5 dpf)
  number of living zebrafish larvae: 10
Zebrafish larvae; 10 µM, 24 h (2 dpf)
  number of living zebrafish larvae: 10
Zebrafish larvae; 10 µM, 48 h (3 dpf)
  number of living zebrafish larvae: 10
Zebrafish larvae; 10 µM, 72 h (4 dpf)
  number of living zebrafish larvae: 10
Zebrafish larvae; 10 µM, 96 h (5 dpf)
  number of living zebrafish larvae: 10
Zebrafish larvae; 30 µM, 24 h (2 dpf)
  number of living zebrafish larvae: 10
Zebrafish larvae; 30 µM, 48 h (3 dpf)
  number of living zebrafish larvae: 10
Zebrafish larvae; 30 µM, 72 h (4 dpf)
  number of living zebrafish larvae: 10
Zebrafish larvae; 30 µM, 96 h (5 dpf)
  number of living zebrafish larvae: 10
Zebrafish larvae; 100 µM, 24 h (2 dpf)
  number of living zebrafish larvae: 5
Zebrafish larvae; 100 µM, 48 h (3 dpf)
  number of living zebrafish larvae: 2
Zebrafish larvae; 100 µM, 72 h (4 dpf)
  number of living zebrafish larvae: 0
Zebrafish larvae; 100 µM, 96 h (5 dpf)
  number of living zebrafish larvae: 0
M. tuberculosis strains; [9]
  MIC: 10 µM (≈ 2.78 µg/mL)
M. tuberculosis strains; [10]
  MIC: 10 µM (≈ 2.78 µg/mL)
M. tuberculosis strains; [11]
  MIC: 10 µM (≈ 2.78 µg/mL)
M. tuberculosis strains; [12]
  MIC: 10 µM (≈ 2.78 µg/mL)
M. tuberculosis strains; [13]
  MIC: 10 µM (≈ 2.78 µg/mL)
M. tuberculosis strains; [14]
  MIC: 5 to 10 µM (≈ 1.39 to 2.78 µg/mL)
M. tuberculosis strains; [15]
  MIC: 5 to 10 µM (≈ 1.39 to 2.78 µg/mL)
[4]
  half-life at 10 µM: 20 min
[5]; [IPTG] 0 mM
  MIC: 12 ± 3 µM (≈ 3.33 µg/mL)
[5]; [16]
  MIC: 10 ± 1 µM (≈ 2.78 µg/mL)
E. coli TolC
  MIC: 21.9 ± 1.3 µM (≈ 6.08 µg/mL)
HEK293
  EC50: > 50 µM
MtDXPS [6]; IC50 (μM)
  IC50: 44 ± 8 µM
MtDXPS [6]; IC50 against MtDXPS
  IC50: 140 ± 12 µM
MtDXPS [6]; IC50 against MtDXPS (MOI study)
  IC50: 17 µM and 35 µM and 58 µM and 121 µM
MtDXPS [6]
  mode of inhibition on MtDXPS: competitive with ThDP and both substrates
  equilibration time (slow-binding): ~100 s
MtDXPS [7]; K i* (μM), Table 1B, oxime derivatives, MtDXPS
  Ki: 0.3 ± 0.02 µM
MtDXPS [7]; [17]
  Ki: 0.271 µM and 0.2 to 0.3 µM
DrDXPS (WT); [18]
  IC50: 59 ± 10 µM
DrDXPS (WT); [19]
  IC50: 70 ± 11 µM
DrDXPS (WT); [20]
  IC50: 33 ± 4 µM
DrDXPS (WT); [21]
  IC50: 54 ± 7 µM

## Cc1nc(N)sc1-c1csc(Nc2ccc(C(F)(F)F)cc2)n1 [Compound 10]
MtDXPS [1]
  Kd: 0.206 µM and 0.2 µM
MtDXPS [2]
  hit validation (false-positive check): true inhibitors
HepG2
  EC50: > 50 µM
A549
  EC50: > 50 µM
[3]; [IPTG] 0 mM
  MIC: 13 ± 1 µM (≈ 4.63 µg/mL)
[3]; [8]
  MIC: 35 ± 3 µM (≈ 12.5 µg/mL)
Zebrafish larvae; 2 µM, 24 h (2 dpf)
  number of living zebrafish larvae: 10
Zebrafish larvae; 2 µM, 48 h (3 dpf)
  number of living zebrafish larvae: 10
Zebrafish larvae; 2 µM, 72 h (4 dpf)
  number of living zebrafish larvae: 10
Zebrafish larvae; 2 µM, 96 h (5 dpf)
  number of living zebrafish larvae: 10
Zebrafish larvae; 10 µM, 24 h (2 dpf)
  number of living zebrafish larvae: 10
Zebrafish larvae; 10 µM, 48 h (3 dpf)
  number of living zebrafish larvae: 10
Zebrafish larvae; 10 µM, 72 h (4 dpf)
  number of living zebrafish larvae: 10
Zebrafish larvae; 10 µM, 96 h (5 dpf)
  number of living zebrafish larvae: 10
Zebrafish larvae; 30 µM, 24 h (2 dpf)
  number of living zebrafish larvae: 2
Zebrafish larvae; 30 µM, 48 h (3 dpf)
  number of living zebrafish larvae: 0
Zebrafish larvae; 30 µM, 72 h (4 dpf)
  number of living zebrafish larvae: 0
Zebrafish larvae; 30 µM, 96 h (5 dpf)
  number of living zebrafish larvae: 0
Zebrafish larvae; 100 µM, 24 h (2 dpf)
  number of living zebrafish larvae: 0
Zebrafish larvae; 100 µM, 48 h (3 dpf)
  number of living zebrafish larvae: 0
Zebrafish larvae; 100 µM, 72 h (4 dpf)
  number of living zebrafish larvae: 0
Zebrafish larvae; 100 µM, 96 h (5 dpf)
  number of living zebrafish larvae: 0
M. tuberculosis strains; [9]
  MIC: > 10 µM
M. tuberculosis strains; [10]
  MIC: 5 µM (≈ 1.78 µg/mL)
M. tuberculosis strains; [11]
  MIC: 5 µM (≈ 1.78 µg/mL)
M. tuberculosis strains; [12]
  MIC: 10 µM (≈ 3.56 µg/mL)
M. tuberculosis strains; [13]
  MIC: 5 to 10 µM (≈ 1.78 to 3.56 µg/mL)
M. tuberculosis strains; [14]
  MIC: 5 to 10 µM (≈ 1.78 to 3.56 µg/mL)
M. tuberculosis strains; [15]
  MIC: 5 to 10 µM (≈ 1.78 to 3.56 µg/mL)
[4]
  half-life at 10 µM: > 60 min
[5]; [IPTG] 0 mM
  MIC: 15 ± 3 µM (≈ 5.35 µg/mL)
[5]; [16]
  MIC: 17 ± 2 µM (≈ 6.06 µg/mL)
E. coli TolC
  MIC: 22.2 ± 3.1 µM (≈ 7.91 µg/mL)
HEK293
  EC50: 25 to 50 µM
MtDXPS [6]; IC50 (μM)
  IC50: 32 ± 3 µM
MtDXPS [6]; IC50 against MtDXPS
  IC50: 118 ± 10 µM
MtDXPS [6]
  mode of inhibition on MtDXPS: competitive with ThDP and both substrates
  equilibration time (slow-binding): ~100 s
MtDXPS [7]; K i* (μM), Table 1C, aminothiazole derivatives, MtDXPS
  Ki: 0.2 ± 0.02 µM
MtDXPS [7]; [17]
  Ki: 0.212 µM and 0.2 to 0.3 µM
DrDXPS (WT); [18]
  IC50: 108 ± 20 µM
DrDXPS (WT); [19]
  IC50: 132 ± 22 µM
DrDXPS (WT); [20]
  IC50: 60 ± 11 µM
DrDXPS (WT); [21]
  IC50: 81 ± 12 µM
